# Literature values in patent US20040157848A1, “Methods and compositions for the treatment of herpes virus infections using cyclooxygenase-2 selective inhibitors or cyclooxygenase-2 inhibitors in combination with antiviral agents” (Pharmacia Corporation, priority 2002, published 2004).
# Columns and labels:
# [1] = system: herpes virus; conditions: supplementation with exogenous GSH, in vitro
# [2] = system: cytomegalovirus induced reactive oxygen species; conditions: cytomegalovirus infected human smooth muscle
smiles,measurement,setting,value
"N[C@@H](CCC(=O)N[C@@H](CS)C(=O)NCC(=O)O)C(=O)O [GSH, glutathione]",inhibition of the replication of herpes virus,[1],over 99%
CC(=O)Oc1ccccc1C(=O)O [aspirin],cytomegalovirus induced reactive oxygen species,[2],reduces
